What was measured:
[1] = test system: Human immunodeficiency virus 1; experiment: Antiviral activity against HIV1 92HT599 infected in human MT2 cells assessed as reduction in p24 production in absence of serum by ELISA; assay type: functional, organism-based
[2] = test system: Human immunodeficiency virus 1; experiment: Antiviral activity against HIV1 92HT599 infected in human MT2 cells assessed as reduction in p24 production in presence of 40% serum by ELISA; assay type: functional, organism-based; details: Human immunodeficiency virus 1, 92HT599, MT2
[3] = Human immunodeficiency virus 1, 92HT599, MT2

SMILES | IC50 [1] [nM] | IC50 [2] [nM] | IC50 [1, 3] [nM]
CC(C)C1=C2[C@H]3CC[C@@H]4[C@@]5(C)CC[C@H](OC(=O)[C@H]6C[C@@H](C(=O)O)C6(C)C)C(C)(C)[C@@H]5CC[C@@]4(C)[C@]3(C)CC[C@@]2(c2ncc(-c3ccc(Cl)cc3)n2CCN(C)C)CC1=O [listing 1 of 2 here] | < 10 | > 50 | 
CC(C)C1=C2[C@H]3CC[C@@H]4[C@@]5(C)CC[C@H](OC(=O)[C@H]6C[C@@H](C(=O)O)C6(C)C)C(C)(C)[C@@H]5CC[C@@]4(C)[C@]3(C)CC[C@@]2(c2nnc(-c3ccc(Cl)cc3)o2)CC1=O |  | < 10 | < 10
CC(C)C1=C2[C@H]3CC[C@@H]4[C@@]5(C)CC[C@H](OC(=O)[C@H]6C[C@@H](C(=O)O)C6(C)C)C(C)(C)[C@@H]5CC[C@@]4(C)[C@]3(C)CC[C@@]2(c2ncc(-c3ccc(Cl)cc3)n2CCN(C)C)CC1=O [listing 2 of 2 here] |  |  | 10 to 50

The next lines start with the values.

IC50 [1] [nM] | IC50 [2] [nM] | IC50 [1, 3] [nM] | SMILES
 | > 50 | < 10 | CC(C)C1=C2[C@H]3CC[C@@H]4[C@@]5(C)CC[C@H](OC(=O)[C@H]6C[C@@H](C(=O)O)C6(C)C)C(C)(C)[C@@H]5CC[C@@]4(C)[C@]3(C)CC[C@@]2(c2ncc(-c3ccc(F)cc3)[nH]2)CC1=O
 | 10 to 50 | < 10 | CC(C)C1=C2[C@H]3CC[C@@H]4[C@@]5(C)CC[C@H](OC(=O)[C@H]6C[C@@H](C(=O)O)C6(C)C)C(C)(C)[C@@H]5CC[C@@]4(C)[C@]3(C)CC[C@@]2(c2ncc(-c3ccccc3)[nH]2)CC1=O
 | 10 to 50 | < 10 | CC(C)C1=C2[C@H]3CC[C@@H]4[C@@]5(C)CC[C@H](OC(=O)[C@H]6C[C@@H](C(=O)O)C6(C)C)C(C)(C)[C@@H]5CC[C@@]4(C)[C@]3(C)CC[C@@]2(c2ncc(-c3ccc(Cl)cc3)[nH]2)CC1=O
